Series [1] can be described thus: MTT cytotoxicity assay. The class given is cell-based. The conditions noted are these: human. The protocol: Human Lung carcinoma epithelial cell line, A549 cell line was obtained from the National Centre for Cell Sciences (NCCS, Pune). The cell line was cultured in DMEM (Himedia), supplemented with 10% fetal bovine serum (Sigma-Aldrich), 25 U/ml penicillin, and […] streptomycin (Himedia) at 37° ° C. in a water-saturated atmosphere of 95% air and 5% CO2. The experiments were repeated three times and average OD (absorbance values) were taken and plotted
8 test compounds (Wheatgrass, Ginger, Garlic, Tulsi, Green tea, Ashwagandha, 95% extract of Piperine and Turmeric) were obtained from the formulation department of Dabur Research Foundation, Sahibabad, Ghaziabad, U.P. 201010. 100 mg of the test compounds was weighed and dissolved in DMSO. After that, it was vortexed thoroughly followed by centrifugation. The clear supernatant was then used for further experimentation.
Cell culture Human Lung carcinoma epithelial cell line, A549 cell line was obtained from the National Centre for Cell Sciences (NCCS, Pune). The cell line was cultured in DMEM (Himedia), supplemented with 10% fetal bovine serum (Sigma-Aldrich), 25 U/ml penicillin, and […] streptomycin (Himedia) at 37° C. in a water-saturated atmosphere of 95% air and 5% CO2.
The effect of DMSO extracts of 8 test compounds (Wheatgrass, Ginger, Garlic, Tulsi, Green tea, Ashwagandha, 95% extract of Piperine and Turmeric) on A549 human lung carcinoma epithelial cell line was observed by MTT (3-(4,5-dimethylthiazol-2-yl)-2,5-diphenyl tetrazolium bromide) assay. MTT reagent was purchased from Sigma (Darmstadt, Germany). Cells were counted on a hemocytometer and 10,000 cells/well were plated in 96 well plate in 180 μl of complete media (containing 10% of FBS).
Cells were treated with different concentrations (0.01, 0.1, 1, 10, 50, 100 μg/ml) of Wheatgrass, Ginger, Garlic, Tulsi, Green tea & Ashwagandha extracts and at concentrations (0.001, 0.01, 0.1, 1, 10 and 50 μg/ml) of 95% extract of Piperine and Turmeric for 72 hr. After the stipulated time, MTT solution (5 mg/ml) was added to each well and incubated for 3 hr. The purple-colored precipitate of formazan was dissolved in 150 μl of DMSO (Sigma-Aldrich) by proper mixing. The color absorbance of each well was recorded at 570 nm in a Bioteck microplate reader with a reference serving as blank. Then, IC50 values of DMSO extracts of 8 test compounds were calculated.
Statistical analysis MTT Data were analyzed by using Microsoft office Excel Software.
(Tetrazolium dyes change colour on reduction, which living cells bring about.)

Series [2] in a line: Free radical scavenging activity (antioxidant assay). The class given is biochemical. The text has this:
Evaluation of in-vitro cytotoxic potential of herbal products in human Lung cancer cell line (A549) by antioxidant assay: […] These substances may have potential as cytotoxic agents for further investigation. In an embodiment, free radical scavenging activity as per IC50 value: […]

In brackets after ≈: the same amount, converted by molar mass. Several values for one entry are separate records, joined by “and”; a condition that tells them apart may be missing. Equal values may be shown once.

By IC50 is commonly meant the point on the concentration scale where inhibition reaches its midpoint. High values mean lower potency, low ones higher potency. The term % Inhibition denotes how much of the control response was suppressed. Read a high % Inhibition as strong suppression.

In series [1], `COc1cccc2c1C(=O)c1c(O)c3c(c(O)c1C2=O)C[C@@](O)(C(=O)CO)C[C@@H]3O[C@H]1C[C@H](N)[C@H](O)[C@H](C)O1` [Doxorubicin] yielded an IC50 at 72 h of 9.39 µM; a cytotoxicity at 72 h, 0.1 µM of 11.7%; a cytotoxicity at 72 h, 1 µM of 19.3%; a cytotoxicity at 72 h, 10 µM of 51%. In addition, in series [1], the cytotoxicity at 72 h, 25 µM is 66.2% and the cytotoxicity at 72 h, 50 µM stood at 69.2%.
For the compound `O=C1O[C@H]([C@@H](O)CO)C(O)=C1O` [Ascorbic Acid], the “IC 50 value (free radical scavenging)” value in series [2] worked out at 37.54 µg/mL (≈ 213 µM). In addition, the “% Inhibition” value in series [2] (1 μg/ml) was 2.3%; in series [2] (10 μg/ml), 13% and 13.2%; in series [2] (20 μg/ml), 24% and 24.4%; in series [2] (30 μg/ml), 38% and 37.6%; in series [2] (40 μg/ml) it was 51% and 50.8%; in series [2] (50 μg/ml) it was 63% and 62.6%. Further, the “% Inhibition” value in series [2] (100 μg/ml) is 90% and 90.4%.
